Experiment [1] has as its target 5-hydroxytryptamine receptor 1B (Homo sapiens, UniProt P28222). Kind of experiment: 5-HT1BR cAMP Secondary Messenger Agonist Assay. An excerpt: The 5-HT1BR cAMP secondary messenger agonist assay used a panel of CHO-K1 cell lines stably expressing non-tagged GPCRs that endogenously signal through cAMP. Hit Hunter cAMP assays monitored the activation of a GPCR via Gi and Gs secondary messenger signaling in a homogenous, non-imaging assay format using DiscoverX Enzyme Fragment Complementation (EFC) with β-galactosidase as the functional endpoint.

Experiment [2] can be described thus: Human Serotonin Transporter (SERT, SLC6A4) Functional Antagonist Uptake Assay. As to the method:
(§1) Benzofuran derivatives were evaluated for inhibiting the human 5-HT transporter (hSERT) as expressed in CHO cells using an antagonist radioligand assay (Tatsumi, M. et al. (1999), Eur. J. Pharmacol., 368: 277-283).

Experiment [3] addresses Sodium-dependent serotonin transporter (Homo sapiens, UniProt P31645). The experiment is described as above. The protocol:
as §1

Among the data in BindingDB's records for patent US20250019357 (Tactogen, 2025) are EC50, IC50 and Ki values, retold here.

Structures are written as SMILES.

Chain of Sodium-dependent serotonin transporter (P31645 whole entry): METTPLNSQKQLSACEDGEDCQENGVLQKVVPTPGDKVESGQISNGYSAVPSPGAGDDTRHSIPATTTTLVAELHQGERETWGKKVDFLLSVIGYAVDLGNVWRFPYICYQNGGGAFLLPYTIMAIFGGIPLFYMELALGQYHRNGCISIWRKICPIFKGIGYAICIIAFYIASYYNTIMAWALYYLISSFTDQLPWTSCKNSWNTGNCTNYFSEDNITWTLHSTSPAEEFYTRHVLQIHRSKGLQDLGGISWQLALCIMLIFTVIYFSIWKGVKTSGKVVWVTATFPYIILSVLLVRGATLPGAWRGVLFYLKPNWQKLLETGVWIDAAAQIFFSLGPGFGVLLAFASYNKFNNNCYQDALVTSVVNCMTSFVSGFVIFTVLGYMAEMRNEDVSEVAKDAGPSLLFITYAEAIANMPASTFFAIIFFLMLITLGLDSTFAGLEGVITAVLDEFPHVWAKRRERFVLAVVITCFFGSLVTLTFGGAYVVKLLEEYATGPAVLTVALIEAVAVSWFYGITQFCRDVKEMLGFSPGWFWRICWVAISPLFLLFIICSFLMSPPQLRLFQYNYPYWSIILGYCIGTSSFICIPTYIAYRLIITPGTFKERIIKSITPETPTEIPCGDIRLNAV
Chain of 5-hydroxytryptamine receptor 1B (P28222 whole entry, the tested form may be a part): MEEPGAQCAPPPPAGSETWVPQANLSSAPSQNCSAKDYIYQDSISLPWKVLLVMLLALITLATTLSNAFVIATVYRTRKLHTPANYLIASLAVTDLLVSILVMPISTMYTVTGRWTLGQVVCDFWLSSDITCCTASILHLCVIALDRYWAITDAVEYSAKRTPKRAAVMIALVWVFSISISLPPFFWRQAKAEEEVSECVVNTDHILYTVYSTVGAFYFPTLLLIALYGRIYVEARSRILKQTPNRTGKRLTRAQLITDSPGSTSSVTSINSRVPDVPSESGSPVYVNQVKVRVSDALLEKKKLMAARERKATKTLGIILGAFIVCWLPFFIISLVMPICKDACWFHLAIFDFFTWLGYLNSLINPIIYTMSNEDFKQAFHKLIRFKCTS

The EC50 is the midpoint of the concentration-response curve. Read a low EC50 as a more potent agent. Take `CCC(NC)C(=O)c1ccc2occc2c1` (single isomer, unassigned; form 1) [US20250019357, Compound (+)-BK-5MBPB]: the EC50 in experiment [1] was > 30000 nM.
Same read-out and setting: with `CNC(C)C(=O)c1ccc2occc2c1` (single isomer, unassigned; form 1) [US20250019357, Compound (-)-BK-5MAPB] the figure was 77.7 nM.
The same measure, in the same setting: with `CNC(C)C(=O)c1ccc2occc2c1` (single isomer, unassigned; form 2) [US20250019357, Compound (+)-BK-5MAPB] the figure was 3070 nM; with `CNC(C)C(=O)c1ccc2ccoc2c1` (single isomer, unassigned; form 2) [US20250019357, Compound (+)-BK-6MAPB], > 10000 nM.
For the molecule `CCC(NC)C(=O)c1ccc2occc2c1` (single isomer, unassigned; form 2) [US20250019357, Compound (-)-BK-5MBPB], a half-maximal response in experiment [1] (EC50) required 6610 nM.
For `CC[C@H](Cc1ccc2ccoc2c1)NC` [US20250019357, Compound R-6-MBPB], in experiment [2], the half-maximal effective concentration (EC50) came to 172 nM.
As usually defined, the IC50 is the concentration needed to halve the response being measured. A high value points to lower potency. For orientation: Ki means a dissociation constant, usually derived from enzyme kinetics or from competition with a known ligand. High values mean a looser hold on the target, low ones a stronger hold on the target. `CC[C@H](Cc1ccc2ccoc2c1)NC` [US20250019357, Compound R-(-)-6-MBPB]: in experiment [3], the IC50 was determined as 5700 nM and the inhibitory constant (Ki) was determined as 2600 nM.
In the case of `CC[C@@H](Cc1ccc2ccoc2c1)NC` [US20250019357, Compound S-6-MBPB], the EC50 in experiment [2] is 54.1 nM. This lies in the double-digit nanomolar range.
In experiment [3], `CC[C@@H](Cc1ccc2ccoc2c1)NC` [US20250019357, Compound S-(+)-6-MBPB] showed a half-inhibitory concentration (IC50) of 2700 nM and a Ki of 1200 nM.
